# Data from PMC3076504 (2011).
# Biological target: Isocitrate lyase (ICL) (Mycobacterium tuberculosis, UniProt P9WKK7)
# Test: colorimetric glyoxylate-phenylhydrazone assay at […] nm, dose response
# Type: biochemical
# Chain of Isocitrate lyase (ICL) (P9WKK7 whole entry): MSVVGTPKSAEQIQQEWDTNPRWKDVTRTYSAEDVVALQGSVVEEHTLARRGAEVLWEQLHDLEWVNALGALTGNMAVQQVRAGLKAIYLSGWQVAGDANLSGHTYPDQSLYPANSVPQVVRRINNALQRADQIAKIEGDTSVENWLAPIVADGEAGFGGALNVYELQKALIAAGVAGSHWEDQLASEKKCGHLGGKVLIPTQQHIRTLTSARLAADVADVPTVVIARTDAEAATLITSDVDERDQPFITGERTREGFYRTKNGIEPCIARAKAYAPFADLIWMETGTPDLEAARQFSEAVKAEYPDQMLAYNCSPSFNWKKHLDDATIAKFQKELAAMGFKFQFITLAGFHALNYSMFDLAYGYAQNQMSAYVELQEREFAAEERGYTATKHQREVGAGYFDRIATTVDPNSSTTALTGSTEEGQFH
smiles,measurement,value
O=C(O)C(=O)O [oxalic acid],IC50,13 mM
